# ChEMBL document CHEMBL1127742, “Compass: predicting biological activities from molecular surface properties. Performance comparisons on a steroid benchmark” (J Med Chem, 1994)
# Molecular target: T1, Sex hormone-binding globulin (Homo sapiens) (UniProt P04278)
# T1 sequence (whole entry): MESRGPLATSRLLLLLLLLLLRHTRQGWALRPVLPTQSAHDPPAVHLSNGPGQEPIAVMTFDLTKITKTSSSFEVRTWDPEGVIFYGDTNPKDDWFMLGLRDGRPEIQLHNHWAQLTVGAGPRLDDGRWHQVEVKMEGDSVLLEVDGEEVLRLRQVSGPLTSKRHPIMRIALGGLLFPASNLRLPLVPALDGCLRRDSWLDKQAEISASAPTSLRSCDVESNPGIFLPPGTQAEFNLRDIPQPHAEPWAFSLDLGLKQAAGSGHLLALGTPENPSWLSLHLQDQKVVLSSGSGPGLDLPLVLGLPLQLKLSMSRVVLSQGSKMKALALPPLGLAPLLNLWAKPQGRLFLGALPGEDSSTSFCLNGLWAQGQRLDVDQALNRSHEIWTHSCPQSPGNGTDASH
# Description: Binding affinity against transport protein testosterone binding globulin.
row,Structure (SMILES),Log 1/K
1,CC(=O)[C@H]1CC[C@H]2[C@@H]3CC=C4C[C@@H](O)CC[C@]4(C)[C@H]3CC[C@]12C,7.15
2,C[C@]12CCC(=O)C=C1CC[C@@H]1[C@@H]2CC[C@@]2(C)[C@H]1CC[C@]2(O)C(=O)CO,7.2
3,CC(=O)[C@H]1CC[C@H]2[C@@H]3CCC4=CC(=O)CC[C@]4(C)[C@H]3CC[C@]12C,6.94
4,C[C@]12CC[C@@H](O)C[C@H]1CC[C@@H]1[C@@H]2CC[C@]2(C)C(=O)CC[C@@H]12,6.15
5,C[C@]12CC[C@@H](O)C[C@@H]1CC[C@@H]1[C@@H]2CC[C@]2(C)C(=O)CC[C@@H]12,7.15
6,CC(=O)[C@@]1(O)CC[C@H]2[C@@H]3CC=C4C[C@@H](O)CC[C@]4(C)[C@H]3CC[C@@]21C,6.36
7,C[C@]12CCC(=O)C=C1CC[C@@H]1[C@@H]2CC[C@]2(C)C(=O)CC[C@@H]12,7.46
8,C[C@]12CC[C@H]3[C@@H](CCC4=CC(=O)CC[C@@]43C)[C@@H]1CC[C@@H]2C(=O)CO,7.38
9,C[C@]12C[C@H](O)[C@H]3[C@@H](CCC4=CC(=O)CC[C@@]43C)[C@@H]1CC[C@@H]2C(=O)CO,6.34
10,C[C@]12CCC(=O)C=C1CC[C@@H]1[C@@H]2C(=O)C[C@@]2(C)[C@H]1CC[C@]2(O)C(=O)CO,6.43
11,C[C@]12CCC(=O)C=C1CCC1C3CC[C@H](C(=O)CO)[C@@]34C[C@H](OC4O)C12 (stereo partly drawn),5.32
12,C[C@]12CC[C@H]3[C@@H](CCC4=CC(=O)CC[C@@]43C)[C@@H]1CC[C@@H]2O,9.2
13,C[C@]12CCC(=O)C[C@@H]1CC[C@@H]1[C@@H]2CC[C@]2(C)[C@@H](O)CC[C@@H]12,9.74
14,C[C@]12CC[C@H](O)C[C@@H]1CC[C@@H]1[C@@H]2CC[C@]2(C)[C@@H](O)CC[C@@H]12,9.11
15,CC(=O)[C@@]1(O)CC[C@H]2[C@@H]3CCC4=CC(=O)CC[C@]4(C)[C@H]3CC[C@@]21C,7
16,C[C@]12CC[C@H](O)CC1=CCC1C2CC[C@]2(C)C(=O)CCC12 (stereo partly drawn),7.82
17,C[C@]12CC[C@@H]3c4ccc(O)cc4CC[C@H]3[C@@H]1C[C@@H](O)[C@@H]2O,6.63
18,C[C@]12CCC(=O)C=C1CC[C@@H]1[C@@H]2[C@@H](O)C[C@@]2(C)[C@H]1CC[C@]2(O)C(=O)CO,6.2
